Laboratory results as given in PMC7738880, “Identification of novel CD44v6-binding peptides that block CD44v6 and deliver a pro-apoptotic peptide to tumors to inhibit tumor growth and metastasis in mice” (Theranostics, 2021).
Residues, ends and D or L forms follow the SMILES beside them.

Columns and labels:
[1] = target: T1, recombinant human CD44-Fc protein (Homo sapiens, UniProt P16070); assay: SPR analysis of peptide binding to CD44-Fc; conditions: biotin-conjugated peptide on streptavidin chip, CD44-Fc 0.125-2 µM
T1 construct: Fc; purchased R&D Systems
T1 sequence (P16070 21-361 isoform P16070-12 limits assumed): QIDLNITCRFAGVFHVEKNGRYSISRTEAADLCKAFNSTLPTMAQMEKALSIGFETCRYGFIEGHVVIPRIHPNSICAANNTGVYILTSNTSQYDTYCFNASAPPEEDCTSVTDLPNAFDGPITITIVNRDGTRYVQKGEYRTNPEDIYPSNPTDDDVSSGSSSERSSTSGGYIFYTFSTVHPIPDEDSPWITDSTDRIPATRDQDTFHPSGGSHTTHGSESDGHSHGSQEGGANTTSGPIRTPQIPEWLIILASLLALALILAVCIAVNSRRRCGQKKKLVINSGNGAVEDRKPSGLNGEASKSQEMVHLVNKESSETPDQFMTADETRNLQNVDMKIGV
Protocol: The binding affinity (KD) of CD44v6-binding peptides to the CD44v6 protein was measured using an SPR instrument (Reichert Technologies, Depew, NY). A streptavidin chip was used as the immobilization substrate and exposed to biotin-labeled peptides (25 μΜ) at 5 μL/min for 50 min. The streptavidin only surface was used for the reference surface. All SPR signals were corrected by subtraction with the response of the reference surface. After washing, the chip was flowed with a solution of CD44v6-Fc or CD44-Fc protein (R&D Systems, Minneapolis, MN) in binding buffer (137 mM NaCl, 10 mM phosphate, 2.7 mM KCl pH 7.4, 62.5 µM BSA, and 0.005% Tween-20) at concentrations of 0.125, 0.25, 0.5, 1, and 2 μM at 10 μL/min for 3 min. Five concentrations (0.125, 0.25, 0.5, 1, and 2 µM) of CD44v6-Fc and CD44-Fc were used in a single-cycle dynamic SPR measurements. Resonance units were recorded and analyzed using Scrubber 2.0 software (BioLogic Software, Campbell, Australia). KD values were calculated by analyzing the steady-state binding data by fitting the curve of binding level against concentration with a 1:1 binding model (GraphPad Prism 7.0 software).

MDA-MB231-luc cells = assay: MDA-MB231-luc experimental lung metastasis model; format: in vivo; conditions: for number of tumor nodules in the lungs, peptide in combination with crizotinib versus single treatment / survival rate, peptide in combination with crizotinib versus single treatment: peptide 14.2 mg/kg i.v. plus crizotinib 25 mg/kg oral; for numbers of metastatic tumor nodules in the lungs / weights of the isolated lungs: peptide 14.2 mg/kg i.v. thrice weekly for 3 weeks; for luminescence signals and total photon flux in the whole body: peptide 14.2 mg/kg i.v. thrice weekly for 3 weeks from 1 h after tumor cell injection; for survival rate: peptide 14.2 mg/kg i.v. thrice weekly or crizotinib 25 mg/kg oral twice weekly, 3 weeks, single treatment; for liver and kidney functional marker levels (BUN, CRE, AST, ALT): peptide alone or in combination with crizotinib, serum, n = 5/group
Protocol: A mouse model of lung metastasis of breast cancer was prepared by injecting 1 × 10^6 MDA-MB231-luc cells into 6-week-old female BALB/c nude mice via tail vein. To monitor the localization of the tumor cells in the lungs, the mice were injected intraperitoneally with D-luciferin at a dose of 150 mg/kg body weight and subjected to a whole-body bioluminescence imaging using IVIS imaging system (Perkin Elmer) after a 10-min resting period. Mice (n = 10 per group) were randomly assigned to groups based on the luminescence intensity. At 1 h after tumor cell injection, tumor-bearing mice received intravenous injections of CD44v6-binding peptides through the tail vein (14.2 mg/kg body weight, thrice weekly for 3 weeks) alone or in combination with orally administered crizotinib in 5% dimethyl sulfoxide (DMSO) (25 mg/kg of body weight, twice weekly for 3 weeks) as previously described, [29]. Metastatic tumor growth after treatments was monitored by measuring the total photon flux (number of photons/second) in the whole body using the IVIS imaging system. The body weights of mice and tumor ulceration were monitored throughout the treatment period. At the end of the treatment period, half of the mice (n = 5 per group) were used for the collection of blood, sacrificed, the lungs were harvested and weighed, and the numbers of metastatic tumor nodules in the lungs were counted. The remaining mice (n = 5 per group) were maintained until death to determine the survival rates. For the analysis of hematological parameters, 1 mL of blood was collected from each mouse and separated into 500 µL aliquots used to prepare serum and plasma. Serum was obtained by centrifuging clotted blood at 4 °C twice, followed by filtration (pore size: 0.22 µm). Plasma was obtained by centrifuging ethylenediaminetetraacetic acid-treated samples. Hematological parameters and liver and kidney function markers were measured by DGMIF (Daegu, Korea).

[2] = target: T2, CD44v6 from MDA-MB231 cell lysates (Homo sapiens, UniProt P16070); assay: Pull-down assay with biotin-labeled peptides; format: binding; conditions: biotinylated peptide 25 µM, streptavidin beads, immunoblotting
T2 sequence (P16070 386-428 limits assumed): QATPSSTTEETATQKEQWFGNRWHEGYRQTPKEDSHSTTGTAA
Protocol: Biotin-labeled peptides were incubated with streptavidin magnetic beads (Bioclone Inc., San Diego, CA) at room temperature for 30-60 min under gentle rotation. MDA-MB231 cells were then lysed using a cell lysis reagent (ThermoFisher Scientific) containing protease inhibitors. The lysates were incubated with the biotinylated peptide (25 µM) and streptavidin bead complexes at room temperature for 30-60 min under gentle rotation. In another set of assays, the recombinant human CD44v6 protein was used instead of the cell lysates. The complexes were pulled down and incubated with an elution buffer containing 2 mM D-biotin (Bioclone Inc.) for 5-10 min, and the eluates were collected and subjected to electrophoresis.

[3] = target: T3, CD44v6 on MDA-MB231 cells (Homo sapiens, UniProt P16070); assay: Flow cytometric competition assays with anti-CD44v6 antibody; format: cell-based; conditions: for peptide binding to cells after pre-treatment with anti-CD44v6 antibody: MDA-MB231, antibody 5 µg/mL 1 h, FITC-labeled peptide 10 µM; for staining of CD44v6 with anti-CD44v6 antibody after pre-treatment with peptide: MDA-MB231, peptide 50 µM 1 h
T3 sequence (P16070 386-428 limits assumed): T2 sequence (P16070 386-428 limits assumed)
Protocol: Cells (1 × 10^5 cells) were harvested and suspended in culture medium containing 1% BSA for 1 h, followed by an incubation with FITC-labeled peptides (25 µM) at 4 °C for 1 h. After washing, the cells were analyzed using a FACSCalibur flow cytometer (BD, Franklin Lakes, NJ). For competition assays, cells were incubated with 5 µg/mL of an anti-human CD44v6 mouse monoclonal antibody (clone no. VFF-18, 1:100 dilution; Abcam, Cambridge, MA) and anti-human CD44 monoclonal antibody (clone no. 156-3C11, 1:100 dilution; ThermoFisher Scientific) for 1 h to compete with peptide binding, followed by an incubation with FITC-labeled peptides (10 µM) before analysis on a flow cytometer (BD). In another set of assays, cells were incubated with peptides (50 µM) for 1 h to compete with antibody binding, followed by an incubation with 5 µg/mL of the anti-human CD44v6 mouse monoclonal antibody for 1 h, The cells were then incubated with an Alexa Fluor 488-labeled goat anti-mouse IgG secondary antibody (Merck) before analysis on a flow cytometer (BD).

4T1 cells = assay: Saturation cell binding assay, 4T1; set-up: species or system mouse; conditions: biotin-labeled peptide 0-256 µM, 4 °C, 1 h
Protocol: Supplementary Information
Supplementary Materials and Methods
Saturation binding assays to determine the cellular binding affinities of peptides Cells (5 × 10^3 cells per well in a 96-well plate) were incubated with 1% bovine serum albumin (BSA) for 30 min and with different concentrations of biotin-labeled peptides (0, 2, 4, 8, 16, 32, 64, 128, and 256 µM) at 4 °C for 1 h. After washing, the cells were incubated with horseradish peroxidase-conjugated neutravidin (1:10,000 dilution; ThermoFisher Scientific, Waltham, MA) for 30 min at room temperature. Enzymatic activity was detected using a 3,3ʹ,5,5ʹ-tetramethylbenzidine substrate (ThermoFisher Scientific), and the reaction was stopped using 2 M sulfuric acid. The absorbance at 450 nm was measured in each well using a microplate reader (Tecan, Mannedorf, Switzerland). The KD values were then calculated using GraphPad Prism 6 software (GraphPad Inc., La Jolla, CA). […]
10 µM biotin-labeled CD44v6-binding peptides at 4 °C for 1 h. […]
Scientific) for 30 min at room temperature. […]

Row | Structure (SMILES) | binding to the CD44 protein [1] | number of tumor nodules in the lungs, peptide in combination with crizotinib versus single treatment (MDA-MB231-luc cells) | survival rate, peptide in combination with crizotinib versus single treatment (MDA-MB231-luc cells) | numbers of metastatic tumor nodules in the lungs (MDA-MB231-luc cells) | weights of the isolated lungs (MDA-MB231-luc cells) | luminescence signals and total photon flux in the whole body (MDA-MB231-luc cells) | survival rate (MDA-MB231-luc cells) | liver and kidney functional marker levels (BUN, CRE, AST, ALT) (MDA-MB231-luc cells) | pull-down of CD44v6 and CD44 from cell lysates [2] | pull-down of c-Met together with CD44v6 from cell lysates [2] | peptide binding to cells after pre-treatment with anti-CD44v6 antibody [3] | staining of CD44v6 with anti-CD44v6 antibody after pre-treatment with peptide [3] | Kd (4T1 cells) | serum alanine transferase levels (MDA-MB231-luc cells; above the normal ranges, 14.2 mg/kg i.v. thrice weekly for 3 weeks)
1 | CC(C)C[C@H](NC(=O)[C@H](CCC(N)=O)NC(=O)[C@H](Cc1c[nH]c2ccccc12)NC(=O)[C@H](CCC(=O)O)NC(=O)[C@H](CC(N)=O)NC(=O)[C@@H](N)CS)C(=O)N[C@@H](CCCCN)C(=O)N[C@@H](CO)C(=O)N[C@@H](CS)C(=O)O [NEW] (H-CNEWQLKSC-OH; N-terminus and C-terminus assumed) | did not bind | more efficiently reduced | increased the survival rate | reduced | reduced | decreased | increased | within or close to the normal ranges | selectively pulled down CD44v6 but not CD44 | pulled down only CD44v6 | significantly inhibited | inhibited | 29 ± 16 µM | 
2 | CC[C@H](C)[C@H](NC(=O)[C@@H](NC(=O)[C@H](CC(N)=O)NC(=O)[C@H](CC(C)C)NC(=O)[C@H](CC(N)=O)NC(=O)[C@@H](N)CS)[C@@H](C)O)C(=O)N[C@@H](CC(=O)O)C(=O)N[C@H](C(=O)N[C@@H](CS)C(=O)O)[C@@H](C)O [NLN] (H-CNLNTIDTC-OH; N-terminus and C-terminus assumed) | did not bind | more efficiently reduced | increased the survival rate | reduced | reduced | decreased | increased | within or close to the normal ranges | selectively pulled down CD44v6 but not CD44 | pulled down both c-Met and CD44v6 | significantly inhibited | inhibited | 17 ± 7 µM | significantly increased
